Measurements published in ChEMBL document CHEMBL1201862, “PubChem BioAssay data set” (2004).
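Tested at 5 concentrations; 48 h exposure; 96-well plates; endpoints linearly interpolated, else capped at highest concentration. Abbreviation: GI50, concentration required for 50% inhibition of growth.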 The source made the active and inactive calls. Rule as the data show it: active = GI50 up to about 1.1 µM and inactive = higher.

Key:
Test in all cases: NCI anticancer screen, dose series, 48 h
786-0 = tested on: 786-0
A549 = tested on: A549
ACHN = tested on: ACHN
CAKI-1 = tested on: CAKI-1
COLO 205 = tested on: COLO 205
DLD-1 = tested on: DLD-1
DMS-273 = tested on: DMS-273
HCC 2998 = tested on: HCC 2998
HCT-116 = tested on: HCT-116
HCT-15 = tested on: HCT-15
HL-60 = tested on: HL-60
HOP-62 = tested on: HOP-62
HOP-92 = tested on: HOP-92
HT-29 = tested on: HT-29
IGROV-1 = tested on: IGROV-1
K562 = tested on: K562
KM-20L2 = tested on: KM-20L2
KM12 = tested on: KM12
LOX IMVI = tested on: LOX IMVI
LXFL 529 = tested on: LXFL 529
M14 = tested on: M14
MOLT-4 = tested on: MOLT-4
Malme-3M = tested on: Malme-3M
NCI-H226 = tested on: NCI-H226
NCI-H23 = tested on: NCI-H23
NCI-H460 = tested on: NCI-H460
NCI-H522 = tested on: NCI-H522
OVCAR-3 = tested on: OVCAR-3
OVCAR-4 = tested on: OVCAR-4
OVCAR-5 = tested on: OVCAR-5
OVCAR-8 = tested on: OVCAR-8
RPMI-8226 = tested on: RPMI-8226
SF-268 = tested on: SF-268
SF-295 = tested on: SF-295
SF-539 = tested on: SF-539
SK-MEL-28 = tested on: SK-MEL-28
SK-MEL-2 = tested on: SK-MEL-2
SK-OV-3 = tested on: SK-OV-3
SN12C = tested on: SN12C
SNB-19 = tested on: SNB-19
SNB-75 = tested on: SNB-75
SNB-78 = tested on: SNB-78
SR = tested on: SR
SW-620 = tested on: SW-620
TK-10 = tested on: TK-10
UACC-257 = tested on: UACC-257
UACC-62 = tested on: UACC-62
UO-31 = tested on: UO-31
XF498 = tested on: XF498

Measured: GI50

O=C(CCC(=O)Nc1ccc(Cl)cc1)CC(=O)c1ccc(F)cc1
> 100 µM: HCT-15
inactive: 786-0 > 100 µM | A549 > 100 µM | ACHN > 100 µM | CAKI-1 > 100 µM | COLO 205 > 100 µM | DLD-1 > 100 µM | DMS-273 > 100 µM | HCC 2998 > 100 µM | HCT-116 > 100 µM | HL-60 > 100 µM | HOP-62 > 100 µM | HOP-92 > 100 µM | HT-29 > 100 µM | IGROV-1 > 100 µM | K562 > 100 µM | KM-20L2 > 100 µM | KM12 > 100 µM | LOX IMVI > 100 µM | LXFL 529 > 100 µM | M14 > 100 µM | MOLT-4 > 100 µM | Malme-3M > 100 µM | NCI-H226 > 100 µM | NCI-H23 > 100 µM | NCI-H460 > 100 µM | NCI-H522 > 100 µM | OVCAR-3 > 100 µM | OVCAR-4 > 100 µM | OVCAR-5 > 100 µM | OVCAR-8 > 100 µM | RPMI-8226 > 100 µM | SF-268 > 100 µM | SF-295 > 100 µM | SF-539 > 100 µM | SK-MEL-28 > 100 µM | SK-MEL-2 > 100 µM | SK-OV-3 > 100 µM | SN12C > 100 µM | SNB-19 > 100 µM | SNB-75 > 100 µM | SNB-78 > 100 µM | SR > 100 µM | SW-620 > 100 µM | TK-10 > 100 µM | UACC-257 > 100 µM | UACC-62 > 100 µM | UO-31 > 100 µM | XF498 > 100 µM
